Target: hERG KV11.1 current (I hERG) (Homo sapiens, UniProt Q12809)
Test: KV11.1 channel current (I hERG), QPatch automated patch‐clamp, CHO–hERG cells
Format: cell-based
Source text: The hERG‐encoded voltage‐dependent potassium channel current (I hERG) cells to be studied were harvested with Detachin solution and either diluted with a volume of CHO cell serum‐free media (supplemented with 100 IU·ml^−1 of penicillin/streptomycin and 25‐mM HEPES) to obtain cells, for which the cell density was ~4 x10^6 cells·ml^−1, or plated on glass coverslips and used on the following 1–2 days. HEK 293 cells were transiently transfected using lipofectamine (Invitrogen, USA), with a human sodium voltage‐gated channel subunit 5 (hSCN5) A (transcript variant 2)‐containing plasmid, in Optimem medium. […]
In addition, after loading the CHO–hERG cell suspension, whole‐cell voltage‐clamp values were recorded at room temperature on a QPatch 16× automated patch‐clamp (Sophion Biosciences), in the single‐hole mode. […] The hERG tail current was measured as the difference between the peak tail current amplitude during the repolarization step and leak current measurement step. Subsequently, the voltage dependence of the block was also assessed, by carrying out depolarization for 4 s, from −80 to +60 mV in 10‐mV steps, before and after the addition of 20‐μM ORM‐11372 (n = 7). The peak tail current elicited during the 5 s repolarization step to −50 mV was measured and plotted against the preceding depolarization step voltage values.

hERG KV11.1 current (I hERG), sequence (Q12809 whole entry): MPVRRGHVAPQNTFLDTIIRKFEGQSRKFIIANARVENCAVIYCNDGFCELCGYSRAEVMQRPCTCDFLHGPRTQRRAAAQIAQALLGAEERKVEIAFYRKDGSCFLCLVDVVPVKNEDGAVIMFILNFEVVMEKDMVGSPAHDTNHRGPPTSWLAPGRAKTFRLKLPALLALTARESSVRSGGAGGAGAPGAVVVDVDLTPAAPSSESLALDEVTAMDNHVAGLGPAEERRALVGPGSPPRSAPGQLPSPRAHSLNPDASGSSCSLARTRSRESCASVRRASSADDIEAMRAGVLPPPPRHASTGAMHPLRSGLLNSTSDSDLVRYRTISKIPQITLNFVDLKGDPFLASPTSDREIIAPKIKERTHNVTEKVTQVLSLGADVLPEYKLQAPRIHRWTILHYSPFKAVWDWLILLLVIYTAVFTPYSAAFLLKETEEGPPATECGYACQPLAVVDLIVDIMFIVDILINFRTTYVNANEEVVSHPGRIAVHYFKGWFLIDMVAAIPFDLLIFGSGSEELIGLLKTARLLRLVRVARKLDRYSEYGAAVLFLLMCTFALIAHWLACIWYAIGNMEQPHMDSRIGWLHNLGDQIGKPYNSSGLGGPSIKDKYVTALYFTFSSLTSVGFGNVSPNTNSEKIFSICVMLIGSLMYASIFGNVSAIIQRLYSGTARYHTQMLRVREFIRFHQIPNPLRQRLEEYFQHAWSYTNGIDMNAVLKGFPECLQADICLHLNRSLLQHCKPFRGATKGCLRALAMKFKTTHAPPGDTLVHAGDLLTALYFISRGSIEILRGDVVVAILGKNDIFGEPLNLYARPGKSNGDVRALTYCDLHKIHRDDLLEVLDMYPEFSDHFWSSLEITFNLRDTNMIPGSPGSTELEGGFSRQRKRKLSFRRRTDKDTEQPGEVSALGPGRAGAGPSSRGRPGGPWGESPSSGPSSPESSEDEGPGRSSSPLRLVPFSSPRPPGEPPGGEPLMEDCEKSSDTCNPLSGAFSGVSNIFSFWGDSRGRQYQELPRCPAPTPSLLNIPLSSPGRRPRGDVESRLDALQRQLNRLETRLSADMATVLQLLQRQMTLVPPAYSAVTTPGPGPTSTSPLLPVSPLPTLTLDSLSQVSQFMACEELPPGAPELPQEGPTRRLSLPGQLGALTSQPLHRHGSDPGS

For Nc1cccc(-c2ccc(CNc3ccc(F)cc3)o2)c1 [ORM‐11372], the “slope k of I hERG activation curve (Boltzmann fit)” value (20 µM ORM-11372, n=7, control 6.9 ± 0.3 mV) was 5.5 ± 0.1 mV and the IC50 (automated patch‐clamp, room temperature) was 19.2 µM.
